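Five concentrations, 48 hours, 96-well plates. GI50 is the concentration that inhibits growth by half.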 The source made the active and inactive calls. Cut-off read from the data, not from the text of the source: active = GI50 up to about 1.1 µM and inactive = higher.
Assays:
Test in all cases: NCI-60 cell line screen, 48 h
[1] = tested on: SR
[2] = tested on: SF-268
[3] = tested on: IGROV-1
[4] = tested on: HCT-116
[5] = tested on: UACC-257
[6] = tested on: KM12
[7] = tested on: TK-10
[8] = tested on: SK-MEL-28
[9] = tested on: RXF 393
[10] = tested on: DLD-1
[11] = tested on: HL-60
[12] = tested on: ACHN
[13] = tested on: NCI-H226
[14] = tested on: LXFL 529
[15] = tested on: LOX IMVI
[16] = tested on: A498
[17] = tested on: SN12C
[18] = tested on: HT-29
[19] = tested on: NCI-H522
[20] = tested on: SK-MEL-5
[21] = tested on: Malme-3M
[22] = tested on: SK-OV-3
[23] = tested on: NCI-H23
[24] = tested on: HOP-62
[25] = tested on: HCT-15
[26] = tested on: RPMI-8226
[27] = tested on: SF-295
[28] = tested on: SF-539
[29] = tested on: A549
[30] = tested on: HOP-18
[31] = tested on: 786-0
[32] = tested on: SK-MEL-2
[33] = tested on: NCI-H460
[34] = tested on: U-251
[35] = tested on: K562
[36] = tested on: SNB-75
[37] = tested on: SW-620
[38] = tested on: CCRF-CEM
[39] = tested on: MOLT-4
[40] = tested on: DMS-273
[41] = tested on: UO-31
[42] = tested on: OVCAR-8
[43] = tested on: M19-MEL
[44] = tested on: HOP-92
[45] = tested on: UACC-62
[46] = tested on: M14
[47] = tested on: OVCAR-4
[48] = tested on: COLO 205
[49] = tested on: CAKI-1
[50] = tested on: OVCAR-5
[51] = tested on: SNB-19
[52] = tested on: MDA-N
[53] = tested on: MCF7
[54] = tested on: BT-549
[55] = tested on: T47D
[56] = tested on: HCC 2998
[57] = tested on: EKVX
[58] = tested on: Hs-578T
[59] = tested on: MDA-MB-231
[60] = tested on: OVCAR-3
[61] = tested on: MDA-MB-435
[62] = tested on: NCI/ADR-RES
[63] = tested on: PC-3
[64] = tested on: DU-145
[65] = tested on: SNB-78
[66] = tested on: KM-20L2

COc1ccc(C2S/C(=C\c3cccc(OC)c3)C(=O)N2NC(=O)Cc2ccccc2)cc1 (configuration not stated)
GI50 [1]: > 100 µM (inactive)
GI50 [2]: > 100 µM (inactive)
GI50 [3]: > 100 µM (inactive)
GI50 [4]: > 100 µM (inactive)
GI50 [5]: > 100 µM (inactive)
GI50 [6]: > 100 µM (inactive)
GI50 [7]: > 100 µM (inactive)
GI50 [8]: > 100 µM (inactive)
GI50 [9]: > 100 µM (inactive)
GI50 [10]: > 100 µM (inactive)
GI50 [11]: > 100 µM (inactive)
GI50 [12]: > 100 µM (inactive)
GI50 [13]: 94.8 µM (inactive)
GI50 [14]: > 100 µM (inactive)
GI50 [15]: > 100 µM (inactive)
GI50 [16]: > 100 µM (inactive)
GI50 [17]: > 100 µM (inactive)
GI50 [18]: > 100 µM (inactive)
GI50 [19]: > 100 µM (inactive)
GI50 [20]: > 100 µM (inactive)
GI50 [21]: > 100 µM (inactive)
GI50 [22]: > 100 µM (inactive)
GI50 [23]: > 100 µM (inactive)
GI50 [24]: > 100 µM (inactive)
GI50 [25]: > 100 µM
GI50 [26]: > 100 µM (inactive)
GI50 [27]: > 100 µM (inactive)
GI50 [28]: > 100 µM (inactive)
GI50 [29]: > 100 µM (inactive)
GI50 [30]: > 100 µM (inactive)
GI50 [31]: > 100 µM (inactive)
GI50 [32]: > 100 µM (inactive)
GI50 [33]: > 100 µM (inactive)
GI50 [34]: > 100 µM (inactive)
GI50 [35]: > 100 µM (inactive)
GI50 [36]: > 100 µM (inactive)
GI50 [37]: > 100 µM (inactive)
GI50 [38]: > 100 µM (inactive)
GI50 [39]: > 100 µM (inactive)
GI50 [40]: > 100 µM (inactive)
GI50 [41]: > 100 µM (inactive)
GI50 [42]: > 100 µM (inactive)
GI50 [43]: > 100 µM (inactive)
GI50 [44]: > 100 µM (inactive)
GI50 [45]: > 100 µM (inactive)
GI50 [46]: > 100 µM (inactive)
GI50 [47]: > 100 µM (inactive)
GI50 [48]: > 100 µM (inactive)
GI50 [49]: > 100 µM (inactive)
GI50 [50]: > 100 µM (inactive)

COc1ccc2nc3c([N+](=O)[O-])ccc4c3c(c2c1)N(CCCN(C)C)C(=S)N4CCCN(C)C
GI50 [51]: 9.71 µM (inactive)
GI50 [52]: 8.13 µM (inactive)
GI50 [1]: 1.72 µM (inactive)
GI50 [2]: 4.46 µM (inactive)
GI50 [53]: 5.07 µM (inactive)
GI50 [3]: 2.97 µM (inactive)
GI50 [4]: 2.1 µM (inactive)
GI50 [5]: 6.12 µM (inactive)
GI50 [6]: 2.5 µM (inactive)
GI50 [7]: 7.4 µM (inactive)
GI50 [8]: 18.1 µM (inactive)
GI50 [9]: 9.53 µM (inactive)
GI50 [11]: 66.4 µM (inactive)
GI50 [12]: 4.1 µM (inactive)
GI50 [13]: 7.48 µM (inactive)
GI50 [54]: 11.8 µM (inactive)
GI50 [55]: 20.5 µM (inactive)
GI50 [15]: 3.28 µM (inactive)
GI50 [56]: 2.9 µM (inactive)
GI50 [16]: 17.7 µM (inactive)
GI50 [17]: 5.11 µM (inactive)
GI50 [18]: 2.22 µM (inactive)
GI50 [19]: 1.53 µM (inactive)
GI50 [20]: 4.94 µM (inactive)
GI50 [21]: 2.65 µM (inactive)
GI50 [22]: 12.6 µM (inactive)
GI50 [23]: 8.97 µM (inactive)
GI50 [24]: 5.19 µM (inactive)
GI50 [25]: 3.4 µM
GI50 [57]: 3.74 µM (inactive)
GI50 [26]: 5.51 µM (inactive)
GI50 [27]: 4.6 µM (inactive)
GI50 [28]: 4 µM (inactive)
GI50 [58]: 7.94 µM (inactive)
GI50 [29]: 5.45 µM (inactive)
GI50 [31]: 2.78 µM (inactive)
GI50 [32]: 16.1 µM (inactive)
GI50 [59]: 7.28 µM (inactive)
GI50 [60]: 6.04 µM (inactive)
GI50 [33]: 2.7 µM (inactive)
GI50 [34]: 6.37 µM (inactive)
GI50 [35]: 1.77 µM (inactive)
GI50 [36]: 8.41 µM (inactive)
GI50 [37]: 2.62 µM (inactive)
GI50 [38]: 4.98 µM (inactive)
GI50 [39]: 3.5 µM (inactive)
GI50 [61]: 5.74 µM (inactive)
GI50 [41]: 7.85 µM (inactive)
GI50 [62]: 6.62 µM (inactive)
GI50 [63]: 3.73 µM (inactive)
GI50 [64]: 5.16 µM (inactive)
GI50 [42]: 5.79 µM (inactive)
GI50 [44]: 4.79 µM (inactive)
GI50 [45]: 16 µM (inactive)
GI50 [46]: 4 µM (inactive)
GI50 [47]: 8.05 µM (inactive)
GI50 [48]: 1.54 µM (inactive)
GI50 [49]: 14.5 µM (inactive)
GI50 [50]: 14.6 µM (inactive)

O=C(Nc1ccc([N+](=O)[O-])cc1Cl)c1cccc([N+](=O)[O-])c1O
GI50 [51]: 3.09 µM (inactive)
GI50 [1]: 2.9 µM (inactive)
GI50 [2]: 2.7 µM (inactive)
GI50 [5]: 2.02 µM (inactive)
GI50 [6]: 3.11 µM (inactive)
GI50 [8]: 1.6 µM (inactive)
GI50 [11]: 1.87 µM (inactive)
GI50 [12]: 2.52 µM (inactive)
GI50 [13]: 2.84 µM (inactive)
GI50 [14]: 1.09 µM (active)
GI50 [15]: 1.71 µM (inactive)
GI50 [56]: 1.69 µM (inactive)
GI50 [16]: 0.668 µM (active)
GI50 [17]: 1.48 µM (inactive)
GI50 [18]: 3.04 µM (inactive)
GI50 [19]: 0.755 µM (active)
GI50 [21]: 0.552 µM (active)
GI50 [23]: 1.12 µM (inactive)
GI50 [57]: 2.16 µM (inactive)
GI50 [26]: 0.92 µM (active)
GI50 [27]: 1.92 µM (inactive)
GI50 [28]: 2.05 µM (inactive)
GI50 [65]: 2.3 µM (inactive)
GI50 [29]: 2.3 µM (inactive)
GI50 [30]: 0.109 µM (active)
GI50 [32]: 1.6 µM (inactive)
GI50 [33]: 2.21 µM (inactive)
GI50 [34]: 2.75 µM (inactive)
GI50 [35]: 1.12 µM (inactive)
GI50 [66]: 2.74 µM (inactive)
GI50 [37]: 2.59 µM (inactive)
GI50 [38]: 1.13 µM (inactive)
GI50 [39]: 1.88 µM (inactive)
GI50 [41]: 1.45 µM (inactive)
GI50 [42]: 2.61 µM (inactive)
GI50 [47]: 2.82 µM (inactive)
GI50 [49]: 1.83 µM (inactive)
GI50 [50]: 3.02 µM (inactive)

Source: ChEMBL document CHEMBL1201862, “PubChem BioAssay data set” (2004)
